The values below come from ChEMBL document CHEMBL1140860, “Synthesis and evaluation of dihydroartemisinin and dihydroartemisitene acetal dimers showing anticancer and antiprotozoal activity” (Bioorg Med Chem, 2009).

pIC50: −log10 of the molar value.

One data set concerns Leishmania donovani. The experiment in a line: Antileishmanial activity against Leishmania donovani promastigotes after 48 hrs by alamar-blue assay. It counts as functional, organism-based.
Data set [1] in a line: Cytotoxicity against african green monkey Vero cells after 48 hrs by neutral red assay. The settings on record: chlorocebus sabaeus, read-out: TC50. It counts as cell-based.
Data set [2] in a line: Selectivity index, ratio of TC50 for african green monkey (Cercopithecus aethiops) Vero cells to IC50 for chloroquine-resistant Plasmodium falciparum W2. Format: toxicity, cell-based.
The nature of data set [3]: Selectivity index, ratio of TC50 for african green monkey (Cercopithecus aethiops) Vero cells to IC50 for chloroquine-sensitive Plasmodium falciparum D6. Format: toxicity, cell-based.

In the data set on Leishmania donovani, `C[C@@H]1[C@H](O)[C@@H](C)/C=C/C=C/C=C/C=C/C=C/C=C/C=C/[C@H](O[C@@H]2O[C@H](C)[C@@H](O)[C@H](N)[C@@H]2O)C[C@@H]2O[C@](O)(C[C@@H](O)C[C@@H](O)[C@H](O)CC[C@@H](O)C[C@@H](O)CC(=O)O[C@H]1C)C[C@H](O)[C@H]2C(=O)O` [AMPHOTERICIN B] had a pIC50 of 7.00 and an IC90 of 0.2 µM.

Consider `C[C@@H]1CC[C@H]2[C@@H](C)C(=O)O[C@@H]3O[C@@]4(C)CC[C@@H]1[C@]32OO4` [ARTEMISININ], for which the CC50 at 48 h in data set [1] was > 1690 µM. For the same molecule, the figures for the selectivity ratio in data set [2] and in data set [3] were > 106 and > 170, respectively.

Consider `N=C(N)c1ccc(OCCCCCOc2ccc(C(=N)N)cc2)cc1` [PENTAMIDINE], for which, in the data set with Leishmania donovani, the negative logarithm of the IC50 (pIC50) was 5.46 and the concentration for an effect of 90% (IC90) worked out at 14.7 µM.
